Experimental data reported in patent US5284862A, “Derivatives of 2-carboxyindoles having pharmaceutical activity” (Warner-Lambert Company, priority 1992, dated 1994).

Columns and labels:
[1] = target: T1, strychnine insensitive glycine receptor which is located on the NMDA receptor complex (Rattus norvegicus, UniProt P35439); assay: glycine binding assay ([3H]-Gly); conditions: for IC50: [3H]-glycine binding; for inhibition at 10 µM: read-out: [3H]-Gly, % Inh. at 10 μM
T1 construct: from tissue
Experimental: Specifically, the compounds of the present invention have activity as antagonists at the strychnine insensitive glycine receptor which is located on the NMDA receptor complex. As such, the compounds of the present invention are NMDA receptor antagonists. Also, the compounds of the present invention have activity as AMPA and kainate receptor antagonists.
The glycine binding assay is performed essentially as described by W. Frost White, et al, Journal of Neurochemistry 1989;53(2):503-12.

[2] = target: AMPA receptor; assay: AMPA binding assay ([3H]-AMPA); conditions: [3H]-AMPA binding; unit inferred
From the text: The AMPA binding assay may also be performed to provide an activity profile for the compounds of the present invention.

[3] = system: cortical neuronal cells; assay: glutamate-induced lactate dehydrogenase (LDH) efflux assay; type: cell-based; conditions: glutamate exposure 5 minutes; LDH released into the culture medium 1 day after exposure
Experimental: The glutamate-induced lactate dehydrogenase (LDH) efflux assay is also used to measure the activity of the compounds of the present invention. Procedures for evaluating neurotoxicity in cortical neuronal cells by measuring efflux of LDH are carried out similarly as described by J. Y. Koh and D. W. Choi, J. Neurosci. Methods 1987;20:83-90. Only mature ([…] in vitro) cortical cultures were selected for study. Cells were exposed for 5 minutes to a glutamate exposure solution. Compounds tested were added to the glutamate exposure medium. In all experiments the glutamate exposure was removed and fresh buffer was added. Overall neuronal injury was quantitatively assessed by measurement of LDH released into the culture medium 1 day after glutamate exposure (see J. G. Klingman, D. M. Hartley, D. W. Choi, J. Neurosci. Methods 1989;31:47-51) using a 96-well plate reader.

Row | IC50 [1] | IC50 [2] | IC50 [3] | inhibition at 10 µM [1] | Structure (SMILES)
1 | 0.18 µM | 203 µM | 10.2 µM | – | O=C(O)/C=C/c1c(C(=O)O)[nH]c2cc(Cl)cc(Cl)c12
2 | – | 213 µM | – | 84% | O=C(/C=C/c1c(C(=O)O)[nH]c2cc(Cl)cc(Cl)c12)NCc1ccccc1
3 | 0.079 µM | 150 µM | 6 µM | – | [N-]=[N+]=Nc1cccc(S(=O)(=O)NC(=O)CCc2c(C(=O)O)[nH]c3cc(Cl)cc(Cl)c23)c1
4 | – | 108 µM | – | 89% | O=C(CCCc1c(C(=O)O)[nH]c2cc(Cl)cc(Cl)c12)NS(=O)(=O)c1ccccc1
5 | 0.068 µM | 113 µM | 7.8 µM | – | O=C(CCc1c(C(=O)O)[nH]c2cc(Cl)cc(Cl)c12)NS(=O)(=O)c1ccccc1
6 | – | 122 µM | – | 87% | O=C(/C=C/c1c(C(=O)O)[nH]c2cc(Cl)cc(Cl)c12)NS(=O)(=O)c1ccccc1
7 | 0.543 µM | 80 µM | 21.5 µM | – | CS(=O)(=O)NC(=O)CCc1c(C(=O)O)[nH]c2cc(Cl)cc(Cl)c12
